Experiments:
rabbit aorta = conditions: high concentrations 10-1000 μM; in vitro; cited from earlier work
[1] = 2 mg/os daily at 18:00 h for 2 months; adult men; cited from earlier work
[2] = Experiment 1: morning blood pressure after 3 weeks of controlled-release melatonin in elderly insomnia patients; assay type: in vivo, human; conditions: hypertensive elderly subjects; administration in the evening
Method: All patients, who had been insomniacs, were diagnosed according to DSM IV. They consisted of 86 men and 96 women, age 72±9 years. […] During the last week of the treatment period, BP was assessed at the morning and comparisons were made between placebo or melatonin treatments, and baseline.

COc1ccc2[nH]cc(CCNC(C)=O)c2c1 [melatonin]
Vasorelaxing action (rabbit aorta): observed
mean serum melatonin levels [1]: marked elevation
daytime systolic and diastolic blood pressure [2]: decreased

Source: US7332177B1, “Method and formulation for treating resistance to antihypertensives and related conditions” (Neurim Pharmaceuticals (1991) Ltd., priority 2000, dated 2008)
